Reference: US20200397686A1, “Methods of Reducing Burning or Stinging Sensation Attributed to Certain Compositions” (Monell Chemical Senses Center, priority 2018, published 2020)

Tested on: burning sensation in the mouth produced by use of LISTERINE mouthwash
Test: Reduction of perceived burning sensation after rinsing with LISTERINE mouthwash with or without sophorolipid (six subjects)
Assay type: in vivo, human
Conditions: five of six subjects; treated mouthwash (sophorolipid added) vs control mouthwash with no sophorolipid; rinse held in mouth 10-60 seconds before spitting; self-reported
Experimental: FIG. 1 is a graph that illustrates that a sophorolipid, having an oleic acid fatty acid tail, when added to mouthwash blocks or inhibits the burning sensation taste produced by use of LISTERINE® mouthwash. As discussed in Example 1 below, six subjects were instructed to rinse their mouths with either control (mouthwash with no sophorolipid) or the treated mouthwash (with 10 μM to 100 μM of the sophorolipid). Subjects reported the results as perceived burning sensation. Five of six subjects reported reductions of at least 50% in perceived burn produced by use of the treated mouthwash vs. use of the control.
Six subjects were involved in the study.
A final concentration of […] of the above noted sophorolipid was added to the mouthwash. The mouthwash with no sophorolipid added was the control. The subjects were told to rinse their mouths with either control or the treated mouthwash and hold it in their mouths for 10-60 seconds before spitting. Subjects were told to report the results as perceived burning sensation.
As reported in the graph of FIG. 1, five of six subjects reported reductions of at least 50% in perceived burn produced by use of the […].

Substance: sophorolipid
- reduction in perceived burn: at least 50%
